# According to patent US12365850B2, “Water-miscible functional fluid, undiluted stock of water-miscible functional fluid, sterilizer for water-miscible functional fluid, and method of sterilizing water-miscible function fluid” (priority 2020, dated 2025):
# Like-named read-outs stand apart in the source and are kept apart here.
# What was measured:
# [1] = pH drop suppression test of water-miscible cutting fluid (circulation and blue LED irradiation); format: physicochemical
# bacteria = assay: Photosterilization test of neutral photosensitizers (bacterial count after light irradiation); format: cell-based
# [2] = 100%×(pH at preparation−pH after continuing use)/(pH at preparation), riboflavin cutting fluid with the named antioxidant
# [3] = class by pH change rate, riboflavin cutting fluid with the named antioxidant
# [4] = riboflavin cutting fluid containing the named antioxidant, one month, Table 3 (same values as Table 2)
# [5] = wavelength 450 nm, irradiance 100 μW/cm2, light intensity 10 J/cm2, photosensitizer 50 ppm (Lumichrome 20 ppm)
# [6] = wavelength 450 nm, irradiance 100 μW/cm2, light intensity 30 J/cm2, photosensitizer 50 ppm (Lumichrome 20 ppm)
# [7] = wavelength 450 nm, irradiance 100 μW/cm2, light intensity 50 J/cm2, photosensitizer 50 ppm (Lumichrome 20 ppm)
# [8] = wavelength 450 nm, irradiance 100 μW/cm2, light intensity 100 J/cm2, photosensitizer 50 ppm (Lumichrome 20 ppm)
# [9] = wavelength 450 nm, irradiance 100 μW/cm2, light intensity 200 J/cm2, photosensitizer 50 ppm (Lumichrome 20 ppm)
# [10] = wavelength 450 nm, irradiance 100 μW/cm2, light intensity 400 J/cm2, photosensitizer 50 ppm (Lumichrome 20 ppm)
smiles,measurement,setting,value
CC(O)CN (stereo not shown) [Monoisopropanolamine],pH change rate (%),[1]; [2],19.8%
same,Evaluation of pH drop supression,[1]; [3],B (pH change rate higher than 15% and at most 20%)
same,pH change,[1]; [4],1.7
"Cc1cc2nc3c(=O)[nH]c(=O)nc-3n(C[C@H](O)[C@H](O)[C@H](O)CO)c2cc1C [Example 1, Riboflavin]",change in the bacterial count due to the light irradiation,bacteria; result in words,a decrease in the bacterial count was found
same,Bacterial count,"bacteria; wavelength 275 nm, irradiance 100 μW/cm2, light intensity 10 J/cm2, photosensitizer 50 ppm",++ (bacterial count was 1.0×10^6 CFU/ml to 1.4×10^7 CFU/ml)
same,Bacterial count,"bacteria; wavelength 275 nm, irradiance 100 μW/cm2, light intensity 30 J/cm2, photosensitizer 50 ppm",++ (bacterial count was 1.0×10^6 CFU/ml to 1.4×10^7 CFU/ml)
same,Bacterial count,"bacteria; wavelength 275 nm, irradiance 100 μW/cm2, light intensity 50 J/cm2, photosensitizer 50 ppm",+ (bacterial count was at least 1.0×10^2 CFU/ml and less than 1.0×10^6 CFU/ml)
same,Bacterial count,"bacteria; wavelength 275 nm, irradiance 100 μW/cm2, light intensity 100 J/cm2, photosensitizer 50 ppm",+ (bacterial count was at least 1.0×10^2 CFU/ml and less than 1.0×10^6 CFU/ml)
same,Bacterial count,"bacteria; wavelength 275 nm, irradiance 100 μW/cm2, light intensity 200 J/cm2, photosensitizer 50 ppm",+ (bacterial count was at least 1.0×10^2 CFU/ml and less than 1.0×10^6 CFU/ml)
same,Bacterial count,"bacteria; wavelength 275 nm, irradiance 100 μW/cm2, light intensity 400 J/cm2, photosensitizer 50 ppm",− (bacterial count was at least 0 and less than 1.0×10^2 CFU/mil)
same,Bacterial count,"bacteria; wavelength 380 nm, irradiance 1200 μW/cm2, light intensity 10 J/cm2, photosensitizer 50 ppm",++ (bacterial count was 1.0×10^6 CFU/ml to 1.4×10^7 CFU/ml)
same,Bacterial count,"bacteria; wavelength 380 nm, irradiance 1200 μW/cm2, light intensity 30 J/cm2, photosensitizer 50 ppm",++ (bacterial count was 1.0×10^6 CFU/ml to 1.4×10^7 CFU/ml)
same,Bacterial count,"bacteria; wavelength 380 nm, irradiance 1200 μW/cm2, light intensity 50 J/cm2, photosensitizer 50 ppm",++ (bacterial count was 1.0×10^6 CFU/ml to 1.4×10^7 CFU/ml)
same,Bacterial count,"bacteria; wavelength 380 nm, irradiance 1200 μW/cm2, light intensity 100 J/cm2, photosensitizer 50 ppm",+ (bacterial count was at least 1.0×10^2 CFU/ml and less than 1.0×10^6 CFU/ml)
same,Bacterial count,"bacteria; wavelength 380 nm, irradiance 1200 μW/cm2, light intensity 200 J/cm2, photosensitizer 50 ppm",+ (bacterial count was at least 1.0×10^2 CFU/ml and less than 1.0×10^6 CFU/ml)
same,Bacterial count,"bacteria; wavelength 380 nm, irradiance 1200 μW/cm2, light intensity 400 J/cm2, photosensitizer 50 ppm",+ (bacterial count was at least 1.0×10^2 CFU/ml and less than 1.0×10^6 CFU/ml)
same,Bacterial count,bacteria; [5],++ (bacterial count was 1.0×10^6 CFU/ml to 1.4×10^7 CFU/ml)
same,Bacterial count,bacteria; [6],+ (bacterial count was at least 1.0×10^2 CFU/ml and less than 1.0×10^6 CFU/ml)
same,Bacterial count,bacteria; [7],+ (bacterial count was at least 1.0×10^2 CFU/ml and less than 1.0×10^6 CFU/ml)
same,Bacterial count,bacteria; [8],+ (bacterial count was at least 1.0×10^2 CFU/ml and less than 1.0×10^6 CFU/ml)
same,Bacterial count,bacteria; [9],− (bacterial count was at least 0 and less than 1.0×10^2 CFU/mil)
same,Bacterial count,bacteria; [10],− (bacterial count was at least 0 and less than 1.0×10^2 CFU/mil)
same,Bacterial count,"bacteria; wavelength 500 nm, irradiance 100 μW/cm2, light intensity 10 J/cm2, photosensitizer 50 ppm",++ (bacterial count was 1.0×10^6 CFU/ml to 1.4×10^7 CFU/ml)
same,Bacterial count,"bacteria; wavelength 500 nm, irradiance 100 μW/cm2, light intensity 30 J/cm2, photosensitizer 50 ppm",++ (bacterial count was 1.0×10^6 CFU/ml to 1.4×10^7 CFU/ml)
same,Bacterial count,"bacteria; wavelength 500 nm, irradiance 100 μW/cm2, light intensity 50 J/cm2, photosensitizer 50 ppm",++ (bacterial count was 1.0×10^6 CFU/ml to 1.4×10^7 CFU/ml)
same,Bacterial count,"bacteria; wavelength 500 nm, irradiance 100 μW/cm2, light intensity 100 J/cm2, photosensitizer 50 ppm",++ (bacterial count was 1.0×10^6 CFU/ml to 1.4×10^7 CFU/ml)
same,Bacterial count,"bacteria; wavelength 500 nm, irradiance 100 μW/cm2, light intensity 200 J/cm2, photosensitizer 50 ppm",+ (bacterial count was at least 1.0×10^2 CFU/ml and less than 1.0×10^6 CFU/ml)
same,Bacterial count,"bacteria; wavelength 500 nm, irradiance 100 μW/cm2, light intensity 400 J/cm2, photosensitizer 50 ppm",+ (bacterial count was at least 1.0×10^2 CFU/ml and less than 1.0×10^6 CFU/ml)
"CC(C)(C)c1ccc(OP(Oc2ccc(C(C)(C)C)cc2C(C)(C)C)Oc2ccc(C(C)(C)C)cc2C(C)(C)C)c(C(C)(C)C)c1 [Tris(2,4-di-tert-butylphenyl) phosphite]",Evaluation of pH drop supression,[1],A (key: A: pH change rate of 15% or lower; B: pH change rate higher than 15% and at most 20%; C: pH change rate higher than 20% and at most 30%; D: pH change rate higher than 30%)
same,pH change,[1],0.4
same,pH change rate (%),[1],4.7%
"CCC(C)Nc1ccc(NC(C)CC)cc1 (stereo not shown) [N,N′-Di-sec-butyl-1,4-phenylenediamine]",pH change rate (%),[1]; [2],4.7%
same,Evaluation of pH drop supression,[1]; [3],A (pH change rate of 15% or lower)
same,pH change,[1]; [4],0.4
CC(O)CNCC(C)O (stereo not shown) [Di-isopropanolamine],pH change rate (%),[1]; [2],8.1%
same,Evaluation of pH drop supression,[1]; [3],A (pH change rate of 15% or lower)
same,pH change,[1]; [4],0.7
CC(O)CN(CC(C)O)CC(C)O (stereo not shown) [Triisopropanolamine],Evaluation of pH drop supression,[1],A (key: A: pH change rate of 15% or lower; B: pH change rate higher than 15% and at most 20%; C: pH change rate higher than 20% and at most 30%; D: pH change rate higher than 30%)
same,pH change,[1],0.8
same,pH change rate (%),[1],9.3%
"Cc1cc2nc3[nH]c(=O)[nH]c(=O)c3nc2cc1C [Example 2, Lumichrome]",Bacterial count,bacteria; [5],++ (bacterial count was 1.0×10^6 CFU/ml to 1.4×10^7 CFU/ml)
same,Bacterial count,bacteria; [6],+ (bacterial count was at least 1.0×10^2 CFU/ml and less than 1.0×10^6 CFU/ml)
same,Bacterial count,bacteria; [7],− (bacterial count was at least 0 and less than 1.0×10^2 CFU/mil)
same,Bacterial count,bacteria; [8],− (bacterial count was at least 0 and less than 1.0×10^2 CFU/mil)
same,Bacterial count,bacteria; [9],− (bacterial count was at least 0 and less than 1.0×10^2 CFU/mil)
same,Bacterial count,bacteria; [10],− (bacterial count was at least 0 and less than 1.0×10^2 CFU/mil)
OCCNCCO [Diethanolamine],pH change rate (%),[1]; [2],8.1%
same,Evaluation of pH drop supression,[1]; [3],A (pH change rate of 15% or lower)
same,pH change,[1]; [4],0.7
"Cc1cc(C(C)(C)C)c(O)c(C(C)(C)C)c1 [BHT, butylated hydroxytoluene]",pH change rate (%),[1]; [2],11.6%
same,Evaluation of pH drop supression,[1]; [3],A (pH change rate of 15% or lower)
same,pH change,[1]; [4],1
"NCC1CCCC(CN)C1 (stereo not shown) [1,3-Bis(aminomethyl)cyclohexane]",pH change rate (%),[1]; [2],16.3%
same,Evaluation of pH drop supression,[1]; [3],B (pH change rate higher than 15% and at most 20%)
same,pH change,[1]; [4],1.4
CC(C)(C)c1cc(CCC(=O)OCC(COC(=O)CCc2cc(C(C)(C)C)c(O)c(C(C)(C)C)c2)(COC(=O)CCc2cc(C(C)(C)C)c(O)c(C(C)(C)C)c2)COC(=O)CCc2cc(C(C)(C)C)c(O)c(C(C)(C)C)c2)cc(C(C)(C)C)c1O [Irganox 1010],pH change rate (%),[1]; [2],5.8%
same,Evaluation of pH drop supression,[1]; [3],A (pH change rate of 15% or lower)
same,pH change,[1]; [4],0.5
CC(C)(C)c1cc(Cn2c(=O)n(Cc3cc(C(C)(C)C)c(O)c(C(C)(C)C)c3)c(=O)n(Cc3cc(C(C)(C)C)c(O)c(C(C)(C)C)c3)c2=O)cc(C(C)(C)C)c1O [Irganox 3114],pH change rate (%),[1]; [2],9.3%
same,Evaluation of pH drop supression,[1]; [3],A (pH change rate of 15% or lower)
same,pH change,[1]; [4],0.8
"CCCC(=O)OCC(OC(=O)CCC)C(OC(=O)CCC)C(Cn1c2nc(=O)[nH]c(=O)c-2nc2cc(C)c(C)cc21)OC(=O)CCC (stereo not shown) [Example 7, Riboflavin butyrate]",Bacterial count,bacteria; [5],++ (bacterial count was 1.0×10^6 CFU/ml to 1.4×10^7 CFU/ml)
same,Bacterial count,bacteria; [6],+ (bacterial count was at least 1.0×10^2 CFU/ml and less than 1.0×10^6 CFU/ml)
same,Bacterial count,bacteria; [7],+ (bacterial count was at least 1.0×10^2 CFU/ml and less than 1.0×10^6 CFU/ml)
same,Bacterial count,bacteria; [8],+ (bacterial count was at least 1.0×10^2 CFU/ml and less than 1.0×10^6 CFU/ml)
same,Bacterial count,bacteria; [9],− (bacterial count was at least 0 and less than 1.0×10^2 CFU/mil)
same,Bacterial count,bacteria; [10],− (bacterial count was at least 0 and less than 1.0×10^2 CFU/mil)
O=C([O-])CN(CCN(CC(=O)[O-])CC(=O)O)CC(=O)O.[Na+].[Na+] [Disodium edetate],Evaluation of pH drop supression,[1],A (key: A: pH change rate of 15% or lower; B: pH change rate higher than 15% and at most 20%; C: pH change rate higher than 20% and at most 30%; D: pH change rate higher than 30%)
same,pH change,[1],0.8
same,pH change rate (%),[1],9.3%
NCCO [Monoethanol amine],pH change rate (%),[1]; [2],17.4%
same,Evaluation of pH drop supression,[1]; [3],B (pH change rate higher than 15% and at most 20%)
same,pH change,[1]; [4],1.5
"Cc1cc2nc3c(=O)[nH]c(=O)nc-3n(CC(O)C(O)C(O)COP(=O)([O-])O)c2cc1C.[Na+] (stereo not shown) [Example 6, Riboflavin sodium phosphate]",Bacterial count,bacteria; [5],++ (bacterial count was 1.0×10^6 CFU/ml to 1.4×10^7 CFU/ml)
same,Bacterial count,bacteria; [6],+ (bacterial count was at least 1.0×10^2 CFU/ml and less than 1.0×10^6 CFU/ml)
same,Bacterial count,bacteria; [7],+ (bacterial count was at least 1.0×10^2 CFU/ml and less than 1.0×10^6 CFU/ml)
same,Bacterial count,bacteria; [8],+ (bacterial count was at least 1.0×10^2 CFU/ml and less than 1.0×10^6 CFU/ml)
same,Bacterial count,bacteria; [9],− (bacterial count was at least 0 and less than 1.0×10^2 CFU/mil)
same,Bacterial count,bacteria; [10],− (bacterial count was at least 0 and less than 1.0×10^2 CFU/mil)
Cc1c(C)c2c(c(C)c1O)CC[C@@](C)(CCC[C@H](C)CCC[C@H](C)CCCC(C)C)O2 [D-α-tocopherol],pH change rate (%),[1]; [2],7.0%
same,Evaluation of pH drop supression,[1]; [3],A (pH change rate of 15% or lower)
same,pH change,[1]; [4],0.6
Sc1nc2ccccc2[nH]1 [2-mercaptobenzimidazole],Evaluation of pH drop supression,[1],C (key: A: pH change rate of 15% or lower; B: pH change rate higher than 15% and at most 20%; C: pH change rate higher than 20% and at most 30%; D: pH change rate higher than 30%)
same,pH change,[1],2.4
same,pH change rate (%),[1],27.9%
O=C1O[C@H]([C@@H](O)CO)C([O-])=C1O.[Na+] [Sodium ascorbate],pH change rate (%),[1]; [2],24.4%
same,Evaluation of pH drop supression,[1]; [3],C (pH change rate higher than 20% and at most 30%)
same,pH change,[1]; [4],2.1
